Measurements from patent US20210260090A1, “USE OF SGLT-2 INHIBITORS FOR THE PREVENTION AND/OR TREAT-MENT OF CARDIAC DISEASES IN FELINES” (Boehringer Ingelheim Vetmedica GmbH, priority 2020, published 2021).

Tests used:
[1] = Plasma NEFA, cholesterol and BHB in cats before and after four week treatment (FIG. 1); format: in vivo, cat; conditions: end of four week treatment period (post) vs pre, versus control
From the text: A significant treatment effect, an increase in blood lipids (NEFA, cholesterol) and plasma concentrations of BHB is noted.

[2] = tested on: cats with hypertrophic cardiomyopathy (HCM) and recent heart failure; assay: Exploratory clinical field study of velagliflozin in cats (Example 2, case 101); format: in vivo; conditions: for NT-proBNP: cardiac biomarker, screening (D −7) 177; for NT-proBNP / Grade of murmur / Resting respiratory rate / Heart rate / Point of maximum intensity / Presence of arrythmia / Presence of gallop sound / Timing of murmur / Presence of murmur / LA/Ao (left atrium to aorta ratio) / LAD max (mm) (Left atrium measured as right parasternal long-axis): cat 101, 1 mg/kg orally once per day; for BPM (mmHG): cat 101, 1 mg/kg bodyweight orally once per day, screening (D −7) 128; for Grade of murmur: screening (D −7) 4; for Resting respiratory rate: screening (D −7) 28; for Heart rate: screening (D −7) 140; for Point of maximum intensity: screening (D −7) left apical; for Presence of arrythmia / Presence of gallop sound: screening (D −7) no; for Timing of murmur: screening (D −7) systolic; for Presence of murmur: screening (D −7) yes; for LA/Ao (left atrium to aorta ratio) / LAD max (mm) (Left atrium measured as right parasternal long-axis): echocardiography; for LA/Ao (left atrium to aorta ratio): screening (D −7) 1.63; for LAD max (mm) (Left atrium measured as right parasternal long-axis): screening (D −7) 16.3
From the text: In an exploratory clinical field study (prospective, baseline controlled, open label and multi-site) under real world conditions, four cats were screened for eligibility for compassionate use of velagliflozin to treat cardiomyopathies and heart failure in cats. […] Due to non-compliance to treatment regime of one pet owner only one cat remained in the study over the complete planned time period of 90 days. Clinical symptoms (evaluated in a physical examination according to Good Veterinary Practice), echocardiographic parameters (always done by the same person at each visit and according to the ACVIM consensus statement guidelines for the classification, diagnosis, and management of cardiomyopathies in cats), blood parameters (evaluated by IDEXX Bioresearch Laboratories, Germany), number of events (re-occurrence of heart failure, cardiac related death or euthanasia) and time to event in days were documented at each visit on the respective Case Report Form.
Case 101 was a 10 years old, female spayed Maine Coon cat, diagnosed with hypertrophic cardiomyopathy (HCM) and previous congestive heart failure.
LA (Left atrium dimension measured as right parasternal short-axis); Ao (Aortic root diameter); LA/Ao, left atrium to aorta ratio; IVSd (interventricular septal end diastolic dimension, i.e. the thickness of the interventricular septum); LAD (Left atrium measured as right parasternal long-axis)

[3] = tested on: cat patients with every possible phenotype of cardiomyopathy (HCM, RCM, UCM, DCM and ARVC); assay: Clinical field study in client-owned cat patients with cardiomyopathy (Example 1); format: in vivo; conditions: 1 mg/kg bodyweight orally once daily
Description: Client-owned cat patients (older than 1 year) with every possible phenotype of cardiomyopathy (HCM, RCM, UCM, DCM and ARVC) with or without clinical symptoms (e.g. congestive heart failure) are treated orally and once daily with a velagliflozin dosage of 1 mg/kg bodyweight.
During the study period the body weight, body condition score, blood pressure and the cardiovascular system (including heart rates, rhythm, presence of gallop sound or murmur and intensity) are examined on a regular basis during the visits at the site by the investigator. Additionally, thoracic radiographs (in the right lateral and dorso ventral view), echocardiography (including LV septal & free wall thickness, LVIDD, LVIDS (FS %), LA/Ao, LAD, ejection fraction) and electrocardiography are performed. In order to obtain an overview as complete as possible regular blood tests include a complete hematology (white blood cells (WBC), WBC differential, red blood cells, hemoglobin, hematocrit, Heinz bodies, platelet count), a biochemistry panel (total protein, Albumin, Globulin, Alkaline phosphatase (ALP), Alanine transaminase (ALT), Aspartate transaminase (AST), Total bilirubin, Creatinine, Blood urea nitrogen or urea (BUN), Calcium, Sodium, Potassium, Chloride, Phosphorus, Glucose, Cholesterol, Triglycerides, Fructosamine), the measurement of total T4, ketone bodies and cardiac biomarkers (Plasma NT-pro BNP, Cardiac troponin I, ST2).
Variables of interest are the number of events defined as cardiac death, cardiac related euthanasia and (re-) occurrence of congestive heart failure and the time to event (survival time of the cat patients).

[4] = cat 101, treatment period Day 1 until Day 90, 1 mg/kg orally once per day
[5] = compared to placebo on top of standard of care

In the case of N#Cc1ccc([C@@H]2O[C@H](CO)[C@@H](O)[C@H](O)[C@H]2O)cc1Cc1ccc(C2CC2)cc1 [velagliflozin, Velagliflozin], the plasma cholesterol [1] is reported as “increase”, the “plasma concentrations of beta-hydroxybutyrat (BHB)” value [1] is reported as “increase” and the “plasma non-esterified fatty acids (NEFA)” value [1] is reported as “increase”. The “NT-proBNP” value ([2]; Visit 2 (D 45)) was 104 pmol/L, the “NT-proBNP” value ([2]; Visit 3 (D 90)) was 39 pmol/L and the “BPM (mmHG)” value ([2]; Visit 2 (D 45)) was 136 mmHG. The “BPM (mmHG)” value ([2]; Visit 3 (D 90)) was 124 mmHG, the Grade of murmur ([2]; Visit 2 (D 45)) was 3 and the Resting respiratory rate ([2]; Visit 2 (D 45)) was 34. The Heart rate ([2]; Visit 2 (D 45)) was 180, the “Point of maximum intensity” value ([2]; Visit 2 (D 45)) was “left apical” and the Presence of arrythmia ([2]; Visit 2 (D 45)) was “no”. The “Presence of gallop sound” value ([2]; Visit 2 (D 45)) was “no”, the Timing of murmur ([2]; Visit 2 (D 45)) was “systolic” and the Presence of murmur ([2]; Visit 2 (D 45)) was “yes”. The Grade of murmur ([2]; Visit 3 (D 90)) was 2, the Resting respiratory rate ([2]; Visit 3 (D 90)) was 34 and the Heart rate ([2]; Visit 3 (D 90)) was 176. For the same compound, the “Point of maximum intensity” value ([2]; Visit 3 (D 90)) was “left apical”, the Presence of arrythmia ([2]; Visit 3 (D 90)) was “no” and the “Presence of gallop sound” value ([2]; Visit 3 (D 90)) was “no”. For the same compound, the Timing of murmur ([2]; Visit 3 (D 90)) was “systolic”, the Presence of murmur ([2]; Visit 3 (D 90)) was “yes” and the “echocardiographic parameters (Table 2), cardiac biomarker (Table 3) and abnormal heart murmur over the treatment period” value ([2]; cat 101, D −7 to D 90) was “improved continuously”. For the same compound, the “general health at study termination” value ([2]; cat 101, end of 90 day study) was “good general health”, the adverse event [2, 4] was “no adverse event” and the “re-occurrence of heart failure or pulmonary oedema” value [2, 4] was “no heart failure or pulmonary oedema re-occurred”. The “LA/Ao (left atrium to aorta ratio)” value ([2]; Visit 2 (D 45)) was 1.36, the “LAD max (mm) (Left atrium measured as right parasternal long-axis)” value ([2]; Visit 2 (D 45)) was 13.8 mm and the “LA/Ao (left atrium to aorta ratio)” value ([2]; Visit 3 (D 90)) was 1.07. For the same compound, the “LAD max (mm) (Left atrium measured as right parasternal long-axis)” value ([2]; Visit 3 (D 90)) was 12.6 mm, the “clinical parameters (e.g. appetite, activity level and breathing)” value ([3]; compared to placebo on top of SoC) was “improve significantly” and the survival time [3, 5] was “significant and clinically relevant prolongation”. For the same compound, the “time to event (cardiac death/euthanasia and (re-)occurrence of congestive heart failure)” value [3, 5] was “significant and clinically relevant prolongation”.
